Measurements as given in patent publication US5364944A, “Substituted benzoylbenzene-, biphenyl- and 2-oxazole- alkanoic acid compounds” (American Home Products Corporation, priority 1993, dated 1994).

What was measured:
LTB4 = experiment: Reverse passive Arthus pleurisy assay, inflammatory mediator release: LTB4; format: in vivo, rat (male Lewis); details: 25 mg/kg p.o., 3 hours before challenge
Description: The compounds of the invention are further tested in the reverse passive Arthus pleurisy assay to evaluate their effectiveness in inflammatory mediator release and/or the fluid and cellular phases of an inflammatory response.
This assay is carried out as follows:
A reverse passive Arthus reaction is induced in the pleural cavity of male Lewis rats (150-200 g; fasted overnight prior to use) by the intravenous administration of bovine serum albumin (BSA; 4 mg/0.2 ml) followed 30 minutes later by the injection of rabbit anti-BSA (1 mg/0.2 ml; lyophilized IgG fraction; Organon Teknika, West Chester, Pa.) into the right pleural space under halothane anesthesia. […] Animals are sacrificed at either the time of peak eicosanoid production (i.e. 5 minutes after anti-BSA for immunoreactive TxB2 10 minutes for immunoreactive LTB4, 20 minutes for immunoreactive LTC4) or at the time of peak neutrophil infiltration (4 hours after anti-BSA) by CO2 inhalation. The pleural cavity is then exposed, the fluid exudate removed by gentle vacuum aspiration and the volume of exudate is recorded. For the determination of cellular infiltration, the pleural cavity is rinsed with 3 ml of 0.1% EDTA in sterile saline, and the recovered wash is pooled with the exudate. Cell number is determined on a model ZBI Coulter counter. For determination of eicosanoid production, undiluted pleural exudate is microfuged and the supernatant is extracted with ethanol (8-10 times volume). Extracts are either stored at -20° C., or are evaporated to dryness under a stream of N2 and reconstituted in radioimmunoassay (RIA) buffer.
Eicosanoids are quantitated by RIA according to the procedure specified by the RIA kit manufacturer (Advanced Magnetics, Cambridge, Mass.). Briefly, 100 μl of ^3 H-labeled eicosanoid and 100 μl of specific antibody are sequentially added to 100 μl of extracted pleural exudate in BGG -phosphate buffer which contains 0.01 M phosphate, 0.1% bovine gamma globulin and 0.1% sodium azide at pH 7.0. Antibody-bound eicosanoid is separated from unbound eicosanoid by the addition of 750 μl of dextran (0.4%)-coated charcoal (0.4% Norit A) containing 0.1% sodium azide. The mixture is centrifuged at 2000 RPM at 5° C. for 15 minutes to pellet the charcoal and adsorbed unbound eicosanoid. Antibody-bound labeled eicosanoid is quantitated by counting in a liquid scintillation counter, and is correlated to concentration by a standard curve.
Inflammatory cells are expressed as 10^6 cells/ml, pleural exudate is expressed as ml of fluid, and the amount of eicosanoids in the pleural cavity is expressed as ng/ml of exudate. Mean ±S.E.M. is determined for each group. Percent inhibition (% I) of cell number, exudate volume and eicosanoid production is calculated for vehicle-treated control groups, and the responses in drug-treated rats are then expressed as the mean % I of the control. […] Exp. Ther., 96, 99-113 (1949).

[1] = tested on: 5-lipoxygenase in human whole blood; experiment: Inhibition of 5-lipoxygenase in human whole blood (LTB4); format: cell-based
Summary of the method: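 Donor whole blood was preincubated with compound (0.1% final DMSO) 10 min at 37° C, then stimulated with 30 μM A23187 for 20 min at 27° C and stopped with EGTA on ice. Plasma LTB4 quantified by RIA or ELISA as ng/10^6 neutrophils; effects given as percent change from control.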

IC50 [1]: 7.8 µM
SMILES: CC(C(=O)N(C)O)c1ccc(-c2ccc(OCc3csc(-c4ccccc4)n3)cc2)cc1 (stereo not drawn) [Example 21, N-Hydroxy-N,α-dimethyl-4'-[(2-phenylthiazol-4-yl)methoxy][1,1'-biphenyl]-4-acetamide]
% Inhibition of LTB4 Synthesis (LTB4): 8%
% Inhibition of LTB4 ([1]; at 25 μM): 85%
